Values of other authors in patent US20070275008A1, “Synergistic Diabetic Phyto-Nutraceutical Composition” (priority 2006, published 2007).

What was measured:
[1] = tested on: hepatic toxicity induced by paracetamol, prednisolone and bromobenzene; settings: mice; pre-treatment during ten days
[2] = tested on: bacterial resistance mechanism against the berberine antimicrobial; settings: in vitro; in the presence of 5′-MHC

Structure (SMILES) | hepatic toxicity induced by paracetamol, prednisolone and bromobenzene [1] | accumulation of berberine in the cells [2]
COc1cc(/C=C/C(=O)[O-])ccc1O.[Na+] [sodium ferulate] | improved the hepatic toxicity | –
COc1cc([C@H]2Oc3cc(-c4cc(=O)c5c(O)cc(O)cc5o4)cc(OC)c3O[C@@H]2CO)ccc1O (racemic) [5′-MHC, 5′-methoxyhydnocarpin] | – | strong increase of accumulation of berberine in the cells
